In article PMC11882969 (Nature Communications, 2025):
Several values for one entry are separate records, joined by “and”; a condition that tells them apart may be missing. Equal entries are not always repeated.

Tests used:
hCB2 [1] = target: T1, hCB2 (Homo sapiens, UniProt P34972); assay: Cerep HTRF cAMP inhibition assay, hCB2 CHO-K1; assay type: cell-based; set-up: host or cells: HEK293SL cells, transient PEI transfection; settings: for functional response, concentration-response point (FigS7d): replicate columns;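 on all read-outs here: compounds incubated 30 min at 37 °C with hCB2 CHO-K1 cells, cAMP detected by HTRF, HBSS as basal and reference agonist as stimulated control, run in triplicate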
T1 sequence (P34972 whole entry): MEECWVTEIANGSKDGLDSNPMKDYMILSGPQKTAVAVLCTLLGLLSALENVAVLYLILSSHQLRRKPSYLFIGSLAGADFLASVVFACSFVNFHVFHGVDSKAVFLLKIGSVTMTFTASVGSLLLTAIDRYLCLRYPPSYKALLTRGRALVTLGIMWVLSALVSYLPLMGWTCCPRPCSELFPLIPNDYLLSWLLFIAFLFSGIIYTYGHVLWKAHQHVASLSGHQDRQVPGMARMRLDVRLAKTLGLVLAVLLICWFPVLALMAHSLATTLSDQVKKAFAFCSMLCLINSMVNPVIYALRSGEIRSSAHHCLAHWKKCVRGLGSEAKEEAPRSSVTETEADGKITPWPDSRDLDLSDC
Protocol: (§1) The hCB1/2 CHO-K1 cells (ATCC: CCL-61) are suspended in HBSS buffer (Invitrogen) complemented with 20 mM HEPES (pH 7.4), then distributed in microplates at a density of 5.103 cells/well in the presence of either of the following: HBSS (basal control), the reference agonist (stimulated control) or the test compounds. […] Following 30 min incubation at 37 °C, the cells are lysed, and the fluorescence acceptor (D2-labeled cAMP) and fluorescence donor (anti-cAMP antibody labeled with europium cryptate) are added. […] Each measurement was done in triplicate.

hCB1 [2] = target: T2, hCB1 (Homo sapiens, UniProt P21554); assay: Cerep HTRF cAMP inhibition assay, hCB1 CHO-K1; assay type: cell-based; set-up: host or cells: HEK293SL cells, transient PEI transfection
T2 sequence (P21554 whole entry): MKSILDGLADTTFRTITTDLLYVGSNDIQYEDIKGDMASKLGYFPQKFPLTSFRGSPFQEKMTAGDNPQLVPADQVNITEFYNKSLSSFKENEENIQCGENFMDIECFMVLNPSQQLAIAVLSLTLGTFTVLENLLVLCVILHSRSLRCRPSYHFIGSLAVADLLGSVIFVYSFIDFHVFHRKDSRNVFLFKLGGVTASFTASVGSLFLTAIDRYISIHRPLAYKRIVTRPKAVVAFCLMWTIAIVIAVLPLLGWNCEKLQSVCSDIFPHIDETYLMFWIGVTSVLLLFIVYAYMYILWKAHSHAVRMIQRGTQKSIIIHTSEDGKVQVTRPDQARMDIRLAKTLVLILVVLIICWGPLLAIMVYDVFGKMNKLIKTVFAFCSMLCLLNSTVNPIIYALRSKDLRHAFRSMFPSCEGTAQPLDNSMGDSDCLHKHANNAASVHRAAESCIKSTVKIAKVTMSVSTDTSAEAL
Protocol: as §1

hCB1 [3] = target: T2, hCB1; assay: Tango β-arrestin-2 recruitment, HTLA cells, CB1R; assay type: cell-based; set-up: expressed in transfected cells; host or cells: HTLA cells (gift of R. Axel), transient transfection; settings: Log[drug]
hCB1 [4] = target: T2, hCB1; assay: DiscoverX PathHunter β-arrestin-2 recruitment; assay type: cell-based; settings: individual replicates;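 further: CHO-K1 cells expressing hCB1, agonist mode, compound exposure with 1% vehicle, chemiluminescence read-out of the β-arrestin-2 recruitment signal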
hCB2 [5] = target: T1, hCB2; assay: TRUPATH BRET2 GoA dissociation, HEK293T; assay type: cell-based; set-up: expressed in transfected cells; host or cells: HEK293T cells (ATCC: CRL-3216), transient co-transfection; settings: Log[drug], replicate columns
CB1 (rCB1) = CB1 (rCB1) (Rattus norvegicus, UniProt P20272); assay: Radioligand competition binding, [3H]-CP-55,940, rat brain membranes; settings: rCB1
Chain of CB1 (rCB1) (P20272 whole entry): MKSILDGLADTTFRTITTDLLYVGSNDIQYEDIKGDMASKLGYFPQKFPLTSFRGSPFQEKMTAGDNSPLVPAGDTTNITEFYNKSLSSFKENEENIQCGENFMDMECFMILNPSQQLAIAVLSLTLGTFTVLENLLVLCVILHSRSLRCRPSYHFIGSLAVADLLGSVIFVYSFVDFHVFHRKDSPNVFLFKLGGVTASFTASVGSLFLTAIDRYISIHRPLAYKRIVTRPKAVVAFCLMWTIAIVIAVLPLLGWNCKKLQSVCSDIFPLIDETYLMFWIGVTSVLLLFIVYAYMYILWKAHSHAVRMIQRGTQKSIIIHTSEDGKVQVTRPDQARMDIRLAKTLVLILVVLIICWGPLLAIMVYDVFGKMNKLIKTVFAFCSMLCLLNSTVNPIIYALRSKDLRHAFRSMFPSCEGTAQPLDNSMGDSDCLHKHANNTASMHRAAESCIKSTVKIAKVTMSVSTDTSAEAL

hCB2 [6] = target: T1, hCB2; assay: Tango β-arrestin-2 recruitment, HTLA cells, CB2R; assay type: cell-based; set-up: expressed in transfected cells; host or cells: HEK293 cells stably expressing human CB2R (Laboratory of Ken Mackie); settings: hCB2
Protocol: The Tango β-arrestin-2 recruitment assays were performed as described[83]. In brief, HTLA cells (a gift from the laboratory of R. Axel) were transiently transfected with human CB1R or CB2R Tango DNA construct overnight in DMEM supplemented with 10 % FBS, 100 µg ml−1 streptomycin and 100 U ml−1 penicillin. The transfected cells were then plated into poly-L-lysine-coated 384-well white clear-bottom cell culture plates in DMEM containing 1% dialysed FBS at a density of 10,000–15,000 cells per well. After incubation for 6 h, the plates were added with drug solutions prepared in DMEM containing 1% dialysed FBS for overnight incubation. On the day of assay, medium and drug solutions were removed and 20 µl per well of BrightGlo reagent (Promega) was added. The plates were further incubated for 20 min at room temperature and counted using the Wallac TriLux Microbeta counter (PerkinElmer). The results were analysed using GraphPad Prism 9. Each experiment was performed in triplicate and functional IC50 values were determined from the mean of three independent experiments.

SMILES: Cc1cc(C(=O)N2CC3(CCC3)C2C2CCCO2)nn1-c1cccc(C(F)(F)F)c1 (centres unmarked) [‘3737]
- Emax (hCB2 [1]; CHO-K1, hCB2): 45%
- functional response, concentration-response point (FigS7d) (hCB2 [1]; Concentration [M] 1e-12): -30 and 18.5 and 4.6
- functional response, concentration-response point (FigS7d) (hCB2 [1]; Concentration [M] 1e-11): 15.9 and 16.3 and 22.7
- functional response, concentration-response point (FigS7d) (hCB2 [1]; Concentration [M] 1e-10): 3.3 and 8.5 and 15.6
- functional response, concentration-response point (FigS7d) (hCB2 [1]; Concentration [M] 1e-9): 40.4 and -11.1 and 23.4
- functional response, concentration-response point (FigS7d) (hCB2 [1]; Concentration [M] 1e-8): 41.2 and 37.3 and 34.7
- functional response, concentration-response point (FigS7d) (hCB2 [1]; Concentration [M] 1e-7): 47.6 and 60.7 and 69.2
- functional response, concentration-response point (FigS7d) (hCB2 [1]; Concentration [M] 1e-6): 52.3 and 67.9 and 43.7
- functional response, concentration-response point (FigS7d) (hCB2 [1]; Concentration [M] 1e-5): 46.2 and 40.4 and 47.6
- Cerep cAMP pEC50 (hCB2 [1]; hCB2): 8.4 [7.7 – 12.5]
- EC50 (hCB2 [1]; hCB2): 4.3 nM
- Emax (hCB1 [2]; CHO-K1): 99%
- Cerep cAMP pEC50 (hCB1 [2]; hCB1): 6.5 [6.0 – 6.8]
- EC50 (hCB1 [2]; hCB1): 326 nM
- response, replicate values of concentration-response curve (FigS7f) (hCB1 [3]; M = -4.52): 16.1787 and -30.1888 and -21.8736 and -37.3037 and -30.7086 and -43.6201 and -17.4903 and -7.002 and -28.2206 and 69.1202 and 86.7632
- response, replicate values of concentration-response curve (FigS7f) (hCB1 [3]; M = -5): 10.5 and 4.251 and -11.4922 and -24.0074 and 39.1171 and 4.908 and -25.6442 and 7.194 and 4.112 and 35.3652 and 54.7761
- response at Log[drug], M -5 (FigS4e) (hCB1 [3]; M = -5, individual replicates): 1.604 and 1.6378 and -0.1263 and 3.554 and -1.645 and -3.332 and -3.586 and -3.254 and -1.133 and -2.551 and -0.4401 and -2.2823
- response, replicate values of concentration-response curve (FigS7f) (hCB1 [3]; M = -5.52): -34.1436 and -19.4525 and -21.2651 and -33.8536 and -16.1649 and -20.5572 and -2.476 and -19.5818 and -27.1597 and -5.334 and 9.411
- response at Log[drug], M -5.52 (FigS4e) (hCB1 [3]; M = -5.52, individual replicates): 3.364 and 3.2967 and 3.89 and 5.267 and -2.445 and -3.368 and -3.286 and -3.18 and -0.5298 and -0.4645 and -2.331 and -1.157
- response, replicate values of concentration-response curve (FigS7f) (hCB1 [3]; M = -6): 47.6523 and 12.1859 and 4.34 and -19.6283 and -3.001 and -0.2146 and 2.4245 and 18.2472 and 13.6095 and 40.7237 and 38.7735
- response at Log[drug], M -6 (FigS4e) (hCB1 [3]; M = -6, individual replicates): 5.688 and 6.311 and 5.608 and 6.012 and -1.436 and -3.213 and -2.355 and -0.1315 and -0.6439 and -0.4319 and -1.117 and -0.5542
- response, replicate values of concentration-response curve (FigS7f) (hCB1 [3]; M = -6.52): 26.7755 and 17.066 and 0.4863 and -24.0472 and -30.3238 and -3.24 and 14.0743 and -8.114 and 32.4836 and -15.0304 and -19.0948
- response at Log[drug], M -6.52 (FigS4e) (hCB1 [3]; M = -6.52, individual replicates): 5.756 and 5.2335 and 6.796 and 5.427 and -1.042 and -1.74 and -1.178 and 0.9023 and 2.299 and 1.818 and -0.3423 and 0.155
- response, replicate values of concentration-response curve (FigS7f) (hCB1 [3]; M = -7): 34.9133 and -3.95 and -16.1188 and -35.3 and 25.4625 and -10.8968 and -21.6834 and 6.2943 and 0.9695 and -12.3146 and 7.534
- response at Log[drug], M -7 (FigS4e) (hCB1 [3]; M = -7, individual replicates): 8.884 and 5.924 and 8.758 and 7.292 and -0.04536 and -0.9069 and -0.4556 and -0.1931 and 0.8804 and 2.804 and 1.011 and 0.1957
- response, replicate values of concentration-response curve (FigS7f) (hCB1 [3]; M = -7.52): -5.053 and -15.3203 and -3.0249 and -6.279 and -50.5337 and -10.2997 and -15.5807 and -8.983 and -20.2588 and 4.854 and 34.2352
- response at Log[drug], M -7.52 (FigS4e) (hCB1 [3]; M = -7.52, individual replicates): 9.415 and 8.198 and 9.343 and 6.627 and -1.362 and -1.444 and -1.617 and 0.25 and 3.66 and 1.117 and 0.375 and 3.994
- response at Log[drug], M -8 (FigS4e) (hCB1 [3]; M = -8, individual replicates): 8.737 and 7.057 and 9.276 and 8.661 and -0.8249 and 2.133 and -0.7879 and -0.8084 and 1.019 and 1.329 and 1.361 and 1.467
- response at Log[drug], M -8.52 (FigS4e) (hCB1 [3]; M = -8.52, individual replicates): 12.5705 and 14.1572 and 15.386 and 12.0363 and 0.2264 and -0.5023 and 0.2681 and 0.2421 and 3.757 and 10.0248 and 2.888 and 3.985
- response, replicate values of concentration-response curve (FigS7f) (hCB1 [3]; M = -9): 8.713
- response at Log[drug], M -9 (FigS4e) (hCB1 [3]; M = -9, individual replicates): 14.7823 and 12.9338 and 10.7167 and 15.0494 and -0.7053 and 1.382 and -0.9032 and 2.064 and 3.902 and 4.367 and 2.588 and 2.216
- response, replicate values of concentration-response curve (FigS7f) (hCB1 [3]; M = -9.52): -15.5865 and 2.109 and -19.0089 and -14.201 and 8.65 and -30.6423 and 15.2767 and -7.75 and 4.87 and -25.5104 and 1.592
- response at Log[drug], M -9.52 (FigS4e) (hCB1 [3]; M = -9.52, individual replicates): 13.1261 and 12.6453 and 12.7896 and 11.1868 and 3.428 and 1.32 and 2.251 and 2.397 and 2.423 and 1.937 and 2.288 and 2.144
- response, replicate values of concentration-response curve (FigS7f) (hCB1 [3]; M = -10): -11.9485 and -4.635 and -5.484 and 10.0562 and 9.379 and -4.05 and 21.9756 and 8.952 and 10.1035 and -36.3186 and 8.518
- response at Log[drug], M -10 (FigS4e) (hCB1 [3]; M = -10, individual replicates): 11.8653 and 11.8119 and 13.3986 and 14.0664 and 1.366 and 1.523 and 1.018 and -1.502 and 5.629 and 3.467 and 5.091 and 7.656
- response at Log[drug], M -10.52 (FigS4e) (hCB1 [3]; M = -10.52, individual replicates): 14.5419 and 16.8873 and 18.068 and 18.8961 and 0.7314 and -0.5544 and 7.931 and 2.309 and 2.226 and 3.798 and 2.154 and 1.523
- response at Log[drug], M -11 (FigS4e) (hCB1 [3]; M = -11, individual replicates): 12.4743 and 12.4476 and 8.323 and 8.772 and 2.428 and 1.528 and 2.267 and 2.496 and 5.774 and 4.76 and 2.712 and 3.85
- response at Log[drug], M -11.52 (FigS4e) (hCB1 [3]; M = -11.52, individual replicates): 6.5336 and 8.19 and 7.298 and 6.6351 and 3.735 and 0.95 and 2.715 and 0.09109 and 2.743 and 1.926 and 0.799 and -0.6593
- response at Log[drug], M -12 (FigS4e) (hCB1 [3]; M = -12, individual replicates): -0.6945 and 1.426 and -1.629 and 0.8975 and 0.8147 and 0.1796 and -0.8095 and -0.1848 and 0.03361 and 0.3025 and -0.05947 and -0.2767
- response at log[M] -5 (FigS4f) (hCB1 [4]; log[M] = -5): 2.937 and 3.369
- response at log[M] -5.47712 (FigS4f) (hCB1 [4]; log[M] = -5.47712): 2.132 and 1.959
- response at log[M] -5.95424 (FigS4f) (hCB1 [4]; log[M] = -5.95424): 0.8089 and 2.3908
- response at log[M] -6.43136 (FigS4f) (hCB1 [4]; log[M] = -6.43136): 0.2049 and 1.2691
- response at log[M] -6.90849 (FigS4f) (hCB1 [4]; log[M] = -6.90849): -0.5141 and 0.32
- response at log[M] -7.38561 (FigS4f) (hCB1 [4]; log[M] = -7.38561): 0.003595 and 0.06112
- response at log[M] -7.86273 (FigS4f) (hCB1 [4]; log[M] = -7.86273): 0.32 and 0.4063
- response at log[M] -8.33985 (FigS4f) (hCB1 [4]; log[M] = -8.33985): 0.003595 and -0.3703
- response at log[M] -8.81697 (FigS4f) (hCB1 [4]; log[M] = -8.81697): 0.2049 and 0.8664
- response at log[M] -9.29409 (FigS4f) (hCB1 [4]; log[M] = -9.29409): -0.4278 and -0.5141
- functional response, concentration-response point (FigS7e, normalized) (hCB2 [5]; M = -5): 7.15 and 0.08499 and 7.219 and 7.788 and 7.891 and 6.738 and 8.045 and 7.095 and 12.8638 and 12.2484 and 11.5588 and 11.0027
- functional response, concentration-response point (FigS7e, normalized) (hCB2 [5]; M = -5.52): 5.302 and 6.612 and 7.12 and 7.029 and 6.875 and 5.885 and 5.894 and 6.474 and 7.41 and 9.531 and 8.971 and 8.263
- functional response, concentration-response point (FigS7e, normalized) (hCB2 [5]; M = -6): 1.28 and 2.3503 and 2.331 and 3.337 and 2.385 and 1.616 and 1.676 and 1.052 and 3.161 and 3.087 and 4.085 and 2.086
- functional response, concentration-response point (FigS7e, normalized) (hCB2 [5]; M = -6.52): 0.8173 and 0.5745 and 0.009098 and 0.9653 and 0.9374 and 0.7056 and 0.8258 and 0.7943 and 1.033 and 1.163 and 0.8851 and 1.056
- functional response, concentration-response point (FigS7e, normalized) (hCB2 [5]; M = -7): 0.2747 and 0.06981 and 0.08878 and 0.8059 and -0.06126 and 0.2392 and 0.2936 and 0.4538 and 0.7999 and 0.4069 and 0.5552 and 0.6998
- functional response, concentration-response point (FigS7e, normalized) (hCB2 [5]; M = -7.52): 0.1912 and 0.08499 and -0.09335 and 0.658 and 0.6598 and 0.9202 and 0.07323 and 0.6226 and 0.2957 and 0.8814 and 0.5663 and 0.5329
- functional response, concentration-response point (FigS7e, normalized) (hCB2 [5]; M = -8): 0.324 and -0.4159 and -0.002285 and 0.1419 and 0.1305 and 0.7285 and 0.8 and 0.368 and 0.355 and 0.3476 and 0.5886 and 0.8221
- functional response, concentration-response point (FigS7e, normalized) (hCB2 [5]; M = -8.52): -0.4237 and 0.0337 and -0.52 and -0.4863 and 0.2451 and -0.1507 and 1.084 and 0.6009 and 0.6985 and 0.3222 and -0.007056 and 0.3034
- functional response, concentration-response point (FigS7e, normalized) (hCB2 [5]; M = -12): 0.3611 and 0.2552 and -0.6451 and 0.02889
- pKi [95% CI] (CB1 (rCB1)): 6.76 [6.5 – 7.03]
- Emax (hCB2 [6]; HTLA, read-out: Tango ß-arrestin recruitment Emax): 9%
- Tango ß-arrestin recruitment pEC50 (hCB2 [6]): 5.8 [5.7 – 5.9]
- EC50 (hCB2 [6]; read-out: Tango ß-arrestin recruitment EC50): 1500 nM
